Measurements taken from patent publication US8410117B2, “Imidazopyrimidine derivatives” (Hoffmann-La Roche Inc., priority 2010, dated 2013).

Legend:
human PDE10A = molecular target: T1, human PDE10A (Homo sapiens, UniProt Q9Y233); assay: human PDE10A full length Scintillation Proximity Assay (SPA); type: biochemical; conditions: 50 nM cGMP and 50 nM [3H]-cGMP, 20 minutes at room temperature; read-out: PDE10A inhibition IC50
T1 construct: The human PDE10A full length assay; purchased Enzo Life Science, Lausen, Switzerland SE-534
T1 sequence (Q9Y233 1-779 isoform Q9Y233-1): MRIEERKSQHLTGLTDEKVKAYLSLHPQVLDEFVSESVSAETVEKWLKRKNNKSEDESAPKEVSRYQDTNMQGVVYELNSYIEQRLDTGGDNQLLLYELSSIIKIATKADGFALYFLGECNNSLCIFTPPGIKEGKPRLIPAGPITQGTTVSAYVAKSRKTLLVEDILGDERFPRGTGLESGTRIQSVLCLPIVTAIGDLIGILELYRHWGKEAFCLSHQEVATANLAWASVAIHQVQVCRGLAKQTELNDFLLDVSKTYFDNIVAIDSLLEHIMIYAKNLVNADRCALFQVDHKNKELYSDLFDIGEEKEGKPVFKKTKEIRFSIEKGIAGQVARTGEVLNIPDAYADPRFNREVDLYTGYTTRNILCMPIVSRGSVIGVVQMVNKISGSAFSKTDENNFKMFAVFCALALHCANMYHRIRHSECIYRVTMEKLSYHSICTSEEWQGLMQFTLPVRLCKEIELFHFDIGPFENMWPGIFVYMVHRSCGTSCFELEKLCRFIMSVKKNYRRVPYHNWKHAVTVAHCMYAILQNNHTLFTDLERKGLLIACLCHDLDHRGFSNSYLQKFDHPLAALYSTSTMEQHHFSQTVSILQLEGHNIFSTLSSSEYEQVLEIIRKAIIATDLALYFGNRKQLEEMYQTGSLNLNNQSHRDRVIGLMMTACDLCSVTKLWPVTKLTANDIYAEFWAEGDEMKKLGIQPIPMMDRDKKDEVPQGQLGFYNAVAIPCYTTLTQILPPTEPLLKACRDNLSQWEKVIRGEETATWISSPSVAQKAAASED
How it was run: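 Full-length enzyme at 3.75 ng/well in 20 mM HEPES pH 7.5, 10 mM MgCl2, 0.05 mg/ml BSA, with 50 nM cGMP plus 50 nM [3H]-cGMP substrate, 20 min at room temperature. Stopped with YSi-SPA beads in zinc sulphate and counted by scintillation. IC50 from inhibitor concentration series; no-enzyme wells define background.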

rats = conditions: sub-chronic treatment with PCP; cited from earlier work

Structure (SMILES)	melting point [°C]	IC50 (human PDE10A) [nM]	deficits in the extra-dimensional shift learning (rats)
COc1ncccc1C(=O)Nc1ccn2cc(-c3ccccc3)nc2n1 [Example 78, 2-Methoxy-N-(2-phenylimidazo[1,2-a]pyrimidin-7-yl)nicotinamide]	225 to 226	125	
Cc1cc(C(=O)Nc2ccn3cc(-c4ccccc4)nc3n2)ccn1 [Example 80, 2-Methyl-N-(2-phenylimidazo[1,2-a]pyrimidin-7-yl)isonicotinamide]	255 to 257	496	
CC(C)c1noc(CNC(=O)c2cnn(C)c2C(=O)Nc2ccn3cc(-c4ccccc4)nc3n2)n1 [Example 171, N4-((3-isopropyl-1,2,4-oxadiazol-5-yl)methyl)-1-methyl-N5-(2-phenylimidazo[1,2-a]pyrimidin-7-yl)-1H-pyrazole-4,5-dicarboxamide]		989	
COc1ccc(Cc2nccc3cc(OC)c(OC)cc23)cc1OC [papaverine, Papaverine]			attenuate the deficits in the extra-dimensional shift learning

Continued by falling IC50 (human PDE10A), values first:

melting point [°C]	IC50 (human PDE10A) [nM]	Structure (SMILES)	deficits in the extra-dimensional shift learning (rats)
148 to 151	703	Cc1cc(C(=O)Nc2ccn3cc(-c4ccccc4)nc3n2)cc(Cl)n1 [Example 81, 2-Chloro-6-methyl-N-(2-phenylimidazo[1,2-a]pyrimidin-7-yl)isonicotinamide]	
> 250	247	Cc1ncc(Cl)c(C(=O)Nc2ccn3cc(-c4ccccc4)nc3n2)n1 [Example 79, 5-Chloro-2-methyl-N-(2-phenylimidazo[1,2-a]pyrimidin-7-yl)pyrimidine-4-carboxamide]	
